“And” between values parts separate entries of the source, which are not always exact repeats. Equal values may be shown once.
What was measured:
FAP = conditions: cited from earlier work
DPPs = conditions: cited from earlier work
PREP = conditions: cited from earlier work
[1] = test system: HEK293T:hFAP tumor-bearing mice; experiment: Ex vivo biodistribution study; format: in vivo; conditions: 1 h pi; for Adrenal Glands uptake / Blood uptake / Bone uptake / Brain uptake / Fat uptake / Heart uptake / Kidneys uptake / Large Intestines uptake / Liver uptake / Lungs uptake / Muscle uptake / Pancreas uptake / Small Intestine uptake / Spleen uptake / Stomach uptake / Testes uptake / Thyroid uptake / Tumor uptake / Tumor/Blood uptake ratio / Tumor/Bone uptake ratio / Tumor/Kidney uptake ratio / Tumor/Muscle uptake ratio: n = 4
Experimental: (§1) Imaging and biodistribution studies were performed using immunodeficient male NRG (NOD.Cg-Rag1tm1Mom Il2rgtm1Wjl/SzJ) mice following previously reported procedures. All experiments were conducted according to the guidelines established by the Canadian Council on Animal Care and approved by Animal Ethics Committee of the University of British Columbia. The mice were subcutaneously inoculated with 7.5 × 10^6 HEK293T:hFAP cells in the left dorsal flank. When the tumors grew to 6–8 mm in diameter, the mice were used for PET/CT imaging and biodistribution studies.
For the biodistribution studies, the mice were injected with ~1–2 MBq of the ^68Ga-labeled tracer, using the exact procedures as described above. At 1 h pi, the mice were euthanized by CO2 inhalation. Blood was withdrawn by a cardiac puncture, and the organs/tissues of interest were collected, weighed and counted using a Perkin Elmer (Waltham, MA, USA) Wizard2 2480 automatic gamma counter. The uptake values in percent of injected dose per gram of tissues (%ID/g) for the different tracers were calculated.
(§2) For blocking studies, HEK293T:hFAP tumor-bearing mice were co-injected [^68Ga]Ga-SB04028 with an excess of FAPI-04 (0.5 mg/mouse) as a competitor. Imaging and biodistribution studies were performed at 1 h pi similar to the unblocked mice.

[2] = test system: HEK293T:hFAP tumor xenograft; experiment: PET/CT imaging; format: in vivo, mice; conditions: 1 h pi
Experimental: as §1
The PET/CT imaging experiments were carried out using a Siemens Inveon micro PET/CT scanner (Knoxville, TN, USA). Tumor-bearing mice were injected with ~4 to 6 MBq of ^68Ga-labeled tracer through a lateral caudal tail vein under 2.5% isoflurane in oxygen anesthesia, followed by recovery and free roaming in their cage during the uptake period. A 10 min localization CT scan was acquired using 3 overlapping positions to cover the entire mouse. The CT scan was used for the attenuation and scatter correction, and anatomical localization. A list mode acquisition was then performed for 15 min at 1 h pi with the mouse under isoflurane sedation. The images were reconstructed using 3D OSEM/MAP iterative methods.
as §2

[3] = In vivo stability study (radio-HPLC of plasma and urine); parameters: species or system mice; conditions: male NRG mice, 15 min pi, n = 3
Experimental: In vivo stability studies were performed using healthy (non-tumor-bearing) male NRG mice following previously reported procedures. Briefly, [^68Ga]Ga-SB02055 (6.32 ± 0.16 MBq) and [^68Ga]Ga-SB04028 (9.90 ± 0.26 MBq) were injected via the lateral caudal vein into the mice (n = 3). At 15 min pi, the mice were sedated and euthanized, and urine and blood were collected. The blood was processed to obtain plasma by adding 0.5 mL of acetonitrile to 0.5–0.8 mL of whole blood, then vortexing and centrifuging the resulting mixture on a benchtop mini-centrifuge (Fisherbrand™ Mini-Centrifuge 100–240 V, 50/60 Hz Universal Plug) for 20 min. The supernatant was collected and filtered to give the blood plasma. The plasma and urine samples were analyzed via radio-HPLC by using the same conditions as those used for quality control of these ^68Ga-labeled radioligands.

[4] = test system: FAP-positive SK-Mel-187 melanoma xenograft; parameters: method as in PMID 25633335; conditions: in vitro; cited from earlier work
[5] = parameters: method as in PMID 35631416; conditions: patients, after administrating 740 MBq; cited from earlier work
[6] = HEK293T:hFAP tumor-bearing male NRG mice, unblocked
[7] = HEK293T:hFAP tumor-bearing mice, blocked: co-injected with FAPI-04 (0.5 mg/mouse)

## CC(NC(=O)c1ccnc2ccc(OCCCN3CCN(C(=O)CN4CCN(CC(=O)[O-])CCN(CC(=O)[O-])CCN(CC(=O)[O-])CC4)CC3)cc12)C(=O)N1CCCC1B(O)O.[68Ga+3] (stereo not drawn) [[^68Ga]Ga-SB04028]
[1]; FAPI-04 0.5 mg/mouse, HEK293T:hFAP tumor-bearing mice
  reduction of average tumor uptake upon co-injection with FAPI-04: ~ 97%
[1]; [6]
  Adrenal Glands uptake: 0.14 ± 0.10 %ID/g
  Blood uptake: 0.97 ± 0.03 %ID/g
  Bone uptake: 0.24 ± 0.09 %ID/g
  Brain uptake: 0.02 ± 0.00 %ID/g
  Fat uptake: 0.07 ± 0.01 %ID/g
  Heart uptake: 0.24 ± 0.02 %ID/g
  Kidneys uptake: 2.10 ± 0.33 %ID/g
  Large Intestines uptake: 0.13 ± 0.03 %ID/g
  Liver uptake: 0.32 ± 0.03 %ID/g
  Lungs uptake: 0.59 ± 0.04 %ID/g
  Muscle uptake: 0.13 ± 0.01 %ID/g
  Pancreas uptake: 0.18 ± 0.02 %ID/g
  Small Intestine uptake: 0.34 ± 0.02 %ID/g
  Spleen uptake: 0.25 ± 0.04 %ID/g
  Stomach uptake: 0.06 ± 0.01 %ID/g
  Testes uptake: 0.18 ± 0.02 %ID/g
  Thyroid uptake: 0.35 ± 0.00 %ID/g
  Tumor uptake: 10.1 ± 0.42 %ID/g
  Tumor/Blood uptake ratio: 10.4 ± 0.70
  Tumor/Bone uptake ratio: 48.1 ± 20.5
  Tumor/Kidney uptake ratio: 4.89 ± 0.72
  Tumor/Muscle uptake ratio: 79.9 ± 7.50
[1]; HEK293T:hFAP tumor-bearing mice
  fold higher tumor uptake compared to [68Ga]Ga-PNT6555: ~ 1.5 fold and > 1.5 fold
[1]; [7]
  Adrenal Glands uptake: 0.09 ± 0.06 %ID/g
  Blood uptake: 0.49 ± 0.13 %ID/g
  Bone uptake: 0.01 ± 0.00 %ID/g
  Brain uptake: 0.02 ± 0.00 %ID/g
  Fat uptake: 0.14 ± 0.13 %ID/g
  Heart uptake: 0.11 ± 0.00 %ID/g
  Kidneys uptake: 2.53 ± 0.57 %ID/g
  Large Intestines uptake: 0.08 ± 0.03 %ID/g
  Liver uptake: 0.30 ± 0.05 %ID/g
  Lungs uptake: 0.78 ± 0.37 %ID/g
  Muscle uptake: 0.66 ± 0.12 %ID/g
  Pancreas uptake: 0.09 ± 0.02 %ID/g
  Small Intestine uptake: 0.34 ± 0.04 %ID/g
  Spleen uptake: 0.18 ± 0.02 %ID/g
  Stomach uptake: 0.03 ± 0.00 %ID/g
  Testes uptake: 0.12 ± 0.01 %ID/g
  Thyroid uptake: 0.14 ± 0.01 %ID/g
  Tumor uptake: 0.30 ± 0.04 %ID/g
  Tumor/Blood uptake ratio: 0.63 ± 0.09
  Tumor/Bone uptake ratio: 33.9 ± 13.3
  Tumor/Kidney uptake ratio: 0.12 ± 0.03
  Tumor/Muscle uptake ratio: 0.46 ± 0.06
[2]; FAPI-04 0.5 mg/mouse
  tumor uptake on PET/CT image upon co-injection with FAPI-04: reduced the tumor uptake to the background level
[2]; HEK293T:hFAP tumor xenograft, unblocked
  tumor on PET/CT image: clear visualization
[3]
  fraction of tracer remaining intact in plasma: 46.6 ± 0.21%
  fraction of tracer remaining intact in urine: 53.6 ± 7.11% and > 54%

## O=C(NCC(=O)N1CCC[C@H]1B(O)O)c1ccc([125I])cc1 [[^125I]MIP-1232]
[4]
  accumulation in FAP-positive SK-Mel-187 melanoma xenograft: strongly accumulate

## [^99mTc]Tc-HYNIC-D-Ala-boroPro [[^99mTc]Tc-iFAP]
[5]
  effective dose: 2.3 ± 0.4 mSv
  mean radiation equivalent dose for the kidney: 5.2 ± 0.8 mSv

## CC(NC(=O)c1ccc(CNC(=O)CN2CCN(CC(=O)[O-])CCN(CC(=O)[O-])CCN(CC(=O)[O-])CC2)cc1)C(=O)N1CCCC1B(O)O.[68Ga+3] (stereo not drawn) [[^68Ga]Ga-PNT6555, reference compound]
[1]; [6]
  Adrenal Glands uptake: 0.56 ± 0.89 %ID/g
  Blood uptake: 0.60 ± 0.04 %ID/g
  Bone uptake: 0.45 ± 0.12 %ID/g
  Brain uptake: 0.02 ± 0.00 %ID/g
  Fat uptake: 0.06 ± 0.02 %ID/g
  Heart uptake: 0.17 ± 0.01 %ID/g
  Kidneys uptake: 2.29 ± 0.43 %ID/g
  Large Intestines uptake: 0.11 ± 0.03 %ID/g
  Liver uptake: 1.49 ± 0.11 %ID/g
  Lungs uptake: 0.42 ± 0.04 %ID/g
  Muscle uptake: 0.12 ± 0.02 %ID/g
  Pancreas uptake: 0.13 ± 0.02 %ID/g
  Small Intestine uptake: 0.64 ± 0.10 %ID/g
  Spleen uptake: 0.21 ± 0.08 %ID/g
  Stomach uptake: 0.11 ± 0.05 %ID/g
  Testes uptake: 0.16 ± 0.03 %ID/g
  Thyroid uptake: 0.26 ± 0.02 %ID/g
  Tumor uptake: 6.38 ± 0.45 %ID/g
  Tumor/Blood uptake ratio: 10.7 ± 1.29
  Tumor/Bone uptake ratio: 14.9 ± 3.34
  Tumor/Kidney uptake ratio: 2.87 ± 0.59
  Tumor/Muscle uptake ratio: 52.6 ± 5.86
